Key:
Assay type in all cases: cell-based
HT29 [1] = test: TUNEL assay, DNA fragmentation; conditions: HT29, 48 h
HCT116 [2] = test: Transwell invasion assay; conditions: Homo sapiens, HCT-116; HCT116, 50 μM, 16 h; read-out: reduction in number of cells passing through Transwell
HCT116 [3] = test: BrdU cell proliferation assay; conditions: Homo sapiens, HCT-116; HCT116, 25 μM or more, 48 h; read-out: reduction of cell proliferation
IRE1α = test: Western blot, ER stress-related protein
HCT116 [4] = test: MTT cell viability assay
HT29 [5] = test: ROS production (DCFH-DA)
LC3BⅡ = test: Western blot, autophagy-related protein
HCT116 [6] = test: TUNEL assay, DNA fragmentation; conditions: HCT116, 48 h
HT29 [7] = test: MTT cell viability assay
cytochrome c = test: Western blot, apoptosis-related protein
HT29 [8] = test: Annexin V/PI apoptosis assay; conditions: Homo sapiens, HT-29, 48 h, read-out: increase in apoptosis versus control
HCT116 [9] = test: Cell migration assay; conditions: HCT116, 24 h
S6 = test: Western blot, signalling protein phosphorylation; conditions: HCT116 and HT29 cells
P70S6K = test: Western blot, signalling protein phosphorylation; conditions: HCT116 and HT29 cells
HT29 [10] = test: Mitochondrial membrane potential (JC-1); conditions: HT29, 100 μM, 48 h
ERK = test: Western blot, signalling protein phosphorylation; conditions: HCT116 and HT29 cells
BAK = test: Western blot, apoptosis-related protein
P38 = test: Western blot, signalling protein phosphorylation; conditions: HCT116 and HT29 cells
ATG5 = test: Western blot, autophagy-related protein; conditions: HT29
HT29 [11] = test: BrdU cell proliferation assay; conditions: Homo sapiens, HT-29; HT29, 50 μM or more, 48 h; read-out: reduction of cell proliferation
HT29 [12] = test: Spheroid culture (hanging drop); conditions: HT29, 50 μM
AKT = test: Western blot, signalling protein phosphorylation; conditions: HCT116 and HT29 cells
HCT116 [13] = test: Spheroid culture (hanging drop); conditions: HCT116, dose-dependent
HCT116 [14] = test: Annexin V/PI apoptosis assay; conditions: Homo sapiens, HCT-116, 48 h, read-out: increase in apoptosis versus control
HT29 [15] = test: Transwell invasion assay; conditions: Homo sapiens, HT-29; HT29, 50 μM, 16 h; read-out: reduction in number of cells passing through Transwell
P62 = test: Western blot, autophagy-related protein; conditions: HT29
eIF2α = test: Western blot, ER stress-related protein; conditions: HCT116
BCL-xL = test: Western blot, apoptosis-related protein; conditions: colorectal cancer cells, 24 h
P90RSK = test: Western blot, signalling protein phosphorylation; conditions: HCT116 and HT29 cells
[16] = test system: colorectal cancer cells (대장암세포); test: Cell cycle analysis (PI, flow cytometry); conditions: 100 μM, 48 h
JNK = test: Western blot, signalling protein phosphorylation; conditions: HCT116 and HT29 cells
HCT116 [17] = test: Mitochondrial membrane potential (JC-1); conditions: 48 h
HCT116 [18] = test: ROS production (DCFH-DA)
GRP78 = test: Western blot, ER stress-related protein; conditions: HCT116
HT29 [19] = test: Cell migration assay; conditions: HT29, 24 h

COc1ccc(-c2cc(=O)c3c(O)c(OC)c(O)cc3o2)cc1OC [유파틸린, 5,7-Dihydroxy-3', 4', 6-trimethoxyflavone]
frequency of DNA fragmentation (HT29 [1]): DNA 단편화의 빈도를 증가 | inhibition at 50 µM (HCT116 [2]): 97.2% | inhibition at 25 µM (HCT116 [3]): ≥ 50% | IRE1α expression (IRE1α; HCT116): 발현을 증가 | IRE1 expression (IRE1α; HT29, only IRE1 increased among the ER stress proteins): IRE1의 발현만 증가 | reduction of cell viability (HCT116 [4]; HCT116, 25 μM or more): ≥ 50% | DCF fluorescence (HT29 [5]; HT29): 형광을 증가 | fold induction at 50 µM (HT29 [5]; Homo sapiens, HT-29, HT29, 50 μM, 1 h, read-out: increase in ROS production): 5.6 | LC3BⅡ expression (LC3BⅡ; HCT116): 발현을 증가 | LC3BⅡ expression (LC3BⅡ; HT29): 발현을 증가 | frequency of DNA fragmentation (HCT116 [6]): DNA 단편화의 빈도를 증가 | reduction of cell viability (HT29 [7]; HT29, 100 μM or more): ≥ 50% | cytochrome c expression (cytochrome c; colorectal cancer cells, 24 h): 발현을 증가 | fold induction at 50 µM (HT29 [8]; HT29, 50 μM): 1.6 | fold induction at 100 µM (HT29 [8]; HT29, 100 μM): 1.7 | cell migration (HCT116 [9]): 세포 이주성을 현저하게 감소 | S6 phosphorylation (S6): 인산화를 억제 | P70S6K phosphorylation (P70S6K): 인산화를 억제 | decrease in mitochondrial membrane potential (HT29 [10]): 1.5 fold | ERK phosphorylation (ERK): 인산화를 유도 | BAK expression (BAK; colorectal cancer cells, 24 h): 발현을 증가 | P38 phosphorylation (P38): 인산화 역시 증가 | ATG5 expression (ATG5): 발현을 증가 | inhibition at 50 µM (HT29 [11]): ≥ 50% | spheroid density (HT29 [12]): 유의적으로 감소 | AKT phosphorylation (AKT): 인산화를 억제 | spheroid density (HCT116 [13]): 용량의존적으로 스페로이드의 전체 면적 및 밀도를 감소 | spheroid total area (HCT116 [13]): 용량의존적으로 스페로이드의 전체 면적 및 밀도를 감소 | fold induction at 50 µM (HCT116 [14]; HCT116, 50 μM): 4.4 | fold induction at 100 µM (HCT116 [14]; HCT116, 100 μM): 13.2 | inhibition at 50 µM (HT29 [15]): 42% | P62 expression (P62): 발현을 증가 | phosphorylated eIF2α expression (eIF2α): 발현을 증가 | BCL-xL expression (BCL-xL): 발현을 저해 | P90RSK phosphorylation (P90RSK): 인산화를 유도 | proportion of S phase [16]: S기의 비율을 감소 | proportion of SubG1 phase [16]: 유의적으로 증가 | JNK phosphorylation (JNK): 인산화 역시 증가 | decrease in mitochondrial membrane potential (HCT116 [17]; HCT116, 50 μM): 2.0 fold | decrease in mitochondrial membrane potential (HCT116 [17]; HCT116, 100 μM): 2.6 fold | DCF fluorescence (HCT116 [18]; HCT116): 형광을 증가 | fold induction at 50 µM (HCT116 [18]; Homo sapiens, HCT-116, HCT116, 50 μM, 1 h, read-out: increase in ROS production): 15.8 | GRP78 expression (GRP78): 발현을 증가 | cell migration (HT29 [19]): 세포 이주성을 현저하게 감소

CCc1c2c(nc3ccc(OC(=O)N4CCC(N5CCCCC5)CC4)cc13)-c1cc3c(c(=O)n1C2)COC(=O)[C@]3(O)CC [Irinotecan]
cell viability (HCT116 [4]; human, hct116 cells, 5 µM): 66.6% | cell viability (HCT116 [4]; human, hct116 cells, 10 µM): 52.0% | cell viability (HCT116 [4]; human, hct116 cells, 20 µM): 43.9% | cell viability (HCT116 [4]; human, hct116 cells, 40 µM): 28.9% | cell viability (HT29 [7]; human, ht29 cells, 5 µM): 81.4% | cell viability (HT29 [7]; human, ht29 cells, 10 µM): 60.9% | cell viability (HT29 [7]; human, ht29 cells, 20 µM): 50.1% | cell viability (HT29 [7]; human, ht29 cells, 40 µM): 30.1%

O=c1[nH]cc(F)c(=O)[nH]1 [5-FU, 5-fluorouracil]
cell viability (HCT116 [4]; HCT116, anticancer drug 5 μM alone): 74.2% | cell viability (HCT116 [4]; HCT116, anticancer drug 10 μM alone): 71.6% | cell viability (HCT116 [4]; HCT116, anticancer drug 20 μM alone): 66.2% | cell viability (HCT116 [4]; HCT116, anticancer drug 40 μM alone): 55.4% | cell viability (HT29 [7]; HT29, anticancer drug 5 μM alone): 69.0% | cell viability (HT29 [7]; HT29, anticancer drug 10 μM alone): 64.1% | cell viability (HT29 [7]; HT29, anticancer drug 20 μM alone): 56.5% | cell viability (HT29 [7]; HT29, anticancer drug 40 μM alone): 50.9% | cytochrome c expression (cytochrome c; 5-FU-resistant HCT116): 발현에는 영향을 미치지 못한 | BAK expression (BAK; 5-FU-resistant HCT116): 발현에는 영향을 미치지 못한

Reference: patent KR20230168537A, “유파틸린을 포함하는 대장암 예방 또는 치료용 약학적 조성물” (고려대학교 산학협력단, priority 2022, dated 2023)
